The values below are quoted from earlier work in patent US20110136913A1, “ASSESSING AND TREATING BREAST CANCER PATIENTS” (priority 2008, published 2011).

The subject of the series is MCF-7 cell lines that stably over express exogenous HER-2. The note with it: MCF-7 cells over expressing HER-2, mouse model.

Each structure is given as a SMILES string.

Take `CC/C(=C(\c1ccccc1)c1ccc(OCCN(C)C)cc1)c1ccccc1` [tamoxifen]: the “Effect on tumor growth” value was “potent agonist on tumor growth”.
